Measurements from US20050136444A1 (priority 2003, published 2005).
Values joined by “and” are separate entries in the source; they are usually repeats but may differ in a detail not shown here. Identical values can stand only once. “Also recorded” adds a separate entry of the source. Counter-ions that a name gives are not always drawn. Like-named read-outs stand apart in the source and are kept apart here.

Tests used:
[1] = target: T1, NPFF2 (Homo sapiens, UniProt Q9Y5X5); experiment: Receptor Selection and Amplification Technology (R-SAT) functional assay, NPFF2; format: cell-based; details: for NPFF2b % Efficacy Mean: Hydrochloride
T1 construct: expressed in transfected cells; host or cells: NIH3T3
T1 sequence (Q9Y5X5 103-522): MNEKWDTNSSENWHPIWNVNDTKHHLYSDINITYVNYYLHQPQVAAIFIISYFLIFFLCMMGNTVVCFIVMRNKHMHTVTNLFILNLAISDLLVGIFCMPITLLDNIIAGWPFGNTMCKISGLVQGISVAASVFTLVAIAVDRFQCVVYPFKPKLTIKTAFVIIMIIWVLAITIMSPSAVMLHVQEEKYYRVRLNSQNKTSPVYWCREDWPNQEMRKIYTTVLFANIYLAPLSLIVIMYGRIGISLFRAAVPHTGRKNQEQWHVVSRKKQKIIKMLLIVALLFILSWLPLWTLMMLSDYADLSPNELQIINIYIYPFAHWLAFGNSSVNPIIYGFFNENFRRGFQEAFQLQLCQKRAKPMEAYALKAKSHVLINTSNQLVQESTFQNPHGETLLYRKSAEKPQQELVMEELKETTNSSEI
In short: (§1)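 NIH3T3 cells transiently transfected for 16-20 h with receptor and β-galactosidase plasmids, then grown with compound for five days at 5% CO2. Functional response read as β-galactosidase activity with ONPG substrate, colorimetric absorbance at 420 nm.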

[2] = test system: rats; experiment: Observed behaviors / side effects after systemic administration; format: in vivo, rat
Description: These behaviors typically precede “barrel-rolling” seizures.
These effects persisted between 15 and 20 minutes. These effects were not observed in rats that received doses less than 10 mg/kg.
These effects persisted between 15 and 20 minutes and were shown by both sham-operated and SNL rats. These effects were not observed in rats that received doses less than 10 mg/kg. [drawing 22]
However, these effects were more robust and of longer duration (60-90 min).
These effects persisted between 60 and 90 minutes and were shown by both sham-operated and SNL rats. These effects were not observed in rats that received doses less than 10 mg/kg. [drawing 23]
A model of neuropathic pain was created in rats by tight ligation of the L5 and L6 spinal nerves. […] Rats were then treated with various doses of dPQR (3, 10 and 30 mg/kg, i.p.) and paw withdrawal thresholds were tested across a period of 3 hours.
A model of neuropathic pain was created in rats by tight ligation of the L5 and L6 spinal nerves. […] Rats were then treated with various doses of Compound 3099 (1, 3 and 10 mg/kg, i.p.) and paw withdrawal thresholds were tested across a period of 3 hours.
In an attempt to increase the efficacy of Compound 3099 in the SNL model, we administered a dose of 30 mg/kg (i.p.) to SNL rats. […] Further, these behaviors were also transient, such that, by the end of the testing period these effects appeared to have resolved.

[3] = test system: L5/L6 SNL-induced Tactile Allodynia; experiment: L5/L6 SNL-induced Tactile Allodynia; format: in vivo, rat; details: for effect on L5/L6 SNL-induced tactile allodynia (paw withdrawal thresholds): various doses; for sensitivity to non-noxious mechanical stimulation in sham-operated rats: 10 mg/kg (1045, 2616), 30 mg/kg (dPQR)
Description: This model of neuropathic pain was developed by Kim and Chung (Kim S H, Chung J M., “An experimental model for peripheral neuropathy produced by segmental spinal nerve ligation in the rat,” Pain, 1992 September; 50(3):355-63). This model requires the ligation of the L5 and L6 spinal nerves between the spinal cord and the entry point into the sciatic nerve. Seven to fourteen days following SNL surgery rats will be reassessed for their response thresholds to mechanical stimuli. For the assessment of paw withdrawal thresholds rats were allowed to acclimate within plexiglass enclosures for approximately 20 min. A series of calibrated von Frey filaments (1.56-15.0 g, logarithmically spaced) were applied to the plantar aspect of the injured hind paw until a response was elicited. Paw withdrawal thresholds to probing were determined according to a previously described method (Chaplan S R, Bach F W, Pogrel J W, Chung J M, Yaksh T L., “Quantitative assessment of tactile allodynia in the rat paw,” J Neurosci Methods, 1994 July;53(1):55-63). Paw withdrawal thresholds were determined to the nearest 0.1 g before surgery, then before and at multiple time points following compound administration. A significant reduction in the paw withdrawal threshold was interpreted as the presence of tactile allodynia.
In order to study the endogenous activity of the NPFF system following injury to peripheral nerves, the activity of a FF1 receptor antagonist, dPQR, was assessed in a model of neuropathic pain. In this model, the L5 and L6 spinal nerves between the spinal cord and the entry point into the sciatic nerve were ligated (Kim & Chung, 1992). Seven to fourteen days following SNL surgery rats were reassessed for their response thresholds to mechanical stimuli. For the assessment of paw withdrawal thresholds rats were allowed to acclimate within plexiglass enclosures for approximately 20 min. A series of calibrated von Frey filaments (1.56-15.0 g, logarithmically spaced) were applied to the plantar aspect of the injured hind paw until a response was elicited. Paw withdrawal thresholds to probing were determined according to a previously described method (Chaplan et al., 1994). Paw withdrawal thresholds were determined to the nearest 0.1 g before surgery, then before and at multiple time points following compound administration. A significant reduction in the paw withdrawal threshold was interpreted as the presence of tactile allodynia.
A model of neuropathic pain was created in rats by tight ligation of the L5 and L6 spinal nerves. […] Rats were then treated with various doses of Compound 1045 (1, 3 and 10 mg/kg, i.p.) and paw withdrawal thresholds were tested across a period of 2 hours.

[4] = target: NPFF1 (Homo sapiens, UniProt Q9GZQ6); experiment: Receptor Selection and Amplification Technology (R-SAT) functional assay, NPFF1; format: cell-based; set-up: expressed in transfected cells; host or cells: NIH3T3; details: for NPFF1 % Efficacy Mean: Hydrochloride
Sequence of NPFF1 (Q9GZQ6 whole entry, species assumed): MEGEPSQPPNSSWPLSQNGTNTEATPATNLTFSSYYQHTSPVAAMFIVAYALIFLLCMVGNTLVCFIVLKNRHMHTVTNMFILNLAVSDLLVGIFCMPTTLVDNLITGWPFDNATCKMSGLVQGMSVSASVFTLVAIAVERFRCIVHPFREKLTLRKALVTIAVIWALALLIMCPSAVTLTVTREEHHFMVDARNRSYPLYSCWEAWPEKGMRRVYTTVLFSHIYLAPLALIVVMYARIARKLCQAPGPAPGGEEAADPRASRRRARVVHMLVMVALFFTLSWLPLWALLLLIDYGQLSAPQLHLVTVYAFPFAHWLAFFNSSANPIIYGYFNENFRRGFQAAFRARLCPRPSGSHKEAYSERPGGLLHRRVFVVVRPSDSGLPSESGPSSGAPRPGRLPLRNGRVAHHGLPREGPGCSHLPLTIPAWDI
In short: as §1

[5] = NPFF2b pEC50 Mean, R-SAT data, Table 2, multiple entries = different batches
[6] = R-SAT data, Table 2, multiple entries = different batches
[7] = R-SAT data, Table 2, multiple entries = different batches, read-out: NPFF2b % Efficacy Mean
[8] = R-SAT data, Table 2, multiple entries = different batches, read-out: NPFF1 % Efficacy Mean
[9] = R-SAT, Table 1, Efficacy is relative to endogenous ligand, read-out: NPFF2 % Efficacy
[10] = R-SAT, Table 1, Efficacy is relative to endogenous ligand, read-out: NPFF1 % Efficacy

Structure (SMILES) | EC50 [1, 5] | NPFF2b % Efficacy Mean [1, 6] | Emax [1, 7] [%] | side effects at doses less than 10 mg/kg ([2]; rat, in vivo) | side effects observed ([2]; rat, in vivo, ip, 10 mg/kg) | effect on L5/L6 SNL-induced tactile allodynia (paw withdrawal thresholds) ([3]; SNL rats, i.p., Hydrochloride) | NPFF1 % Efficacy Mean [4, 6] | Emax [4, 8] [%] | Emax [1, 9] [%] | Emax [4, 10] [%] | further results
NC(N)=NN=Cc1ccc(-c2ccccc2C(F)(F)F)o1 (racemic) [Compound 2616, 1-[(5-(2-(Trifluoromethyl)phenyl)-furan-2-yl)-methyleneamino]guanidine Hydrochloride] | 100 nM | 80.4% and 72.9% | 63 | not observed | demonstrated writhing behavior and appeared lethargic | either demonstrate very little efficacy or potentiate tactile allodynia; also recorded: dose-related potentiation of tactile allodynia | 66.3% and 52.1% | 55 | – | – | duration of side effects ([2]; rat, in vivo, ip, 10 mg/kg): 60 to 90 min; sensitivity to non-noxious mechanical stimulation in sham-operated rats ([3]; i.p., Hydrochloride): produced tactile allodynia in sham-operated rats; also recorded: significant reduction in the paw withdrawal thresholds of sham-operated rats; EC50 [4]: 39.8 nM; EC50 ([4]; R-SAT data, Table 2, multiple entries = different batches, read-out: NPFF1 pEC50 Mean (converted)): 1260 nM and 316 nM
NC(N)=N/N=C/c1ccc(Cl)c(Cl)c1 [Compound 1045, 1-(3,4-Dichlorobenzylideneamino)guanidine Hydrochloride] | 794 nM and 501 nM | 55.2% | 63.8 | not observed | demonstrated writhing behavior and appeared lethargic | – | – | 6.3 | 64 | 17 | EC50 ([1]; NPFF2 pEC50, R-SAT, Table 1, NA = No activity detectable at the highest dose tested (20 μM)): 794 nM; duration of side effects ([2]; SNL rats, 30 mg/kg): 60 to 90 min; new side effects noted ([2]; rat, in vivo, 30 mg/kg): ptosis, shuffling/stomping and biting of forlimbs and hindlimbs; efficacy against SNL-induced tactile allodynia at 30 mg/kg ([3]; SNL rats, 30 mg/kg): initially efficacious at the 30 min time-point; paw withdrawal thresholds by 60 min and until the end of the testing session ([3]; SNL rats, 30 mg/kg, suggests potentiation of tactile allodynia): significantly reduced the paw withdrawal thresholds to levels below those obtained in SNL vehicle-treated rats; maximum efficacy, reversal of tactile allodynia ([3]; SNL rats, i.p.): 37.9%; sensitivity to non-noxious mechanical stimulation in sham-operated rats ([3]; i.p.): did not significantly alter sensitivity to non-noxious mechanical stimulation
Cl.N=C(N)N/N=C/c1ccc(Br)c(Br)c1 [Compound 3093, 1-(3,4-Dibromobenzylideneamino)guanidine Hydrochloride] | – | 89.9% | 85.3 | – | – | dose-dependently reverse tactile allodynia; also recorded: dose-related reversal of tactile allodynia | 11.7% | 10.2 | 89 | 11 | EC50 ([1]; R-SAT data, Table 2, multiple entries = different batches, read-out: NPFF2b pEC50 Mean (converted)): 631 nM and 1260 nM; EC50 ([1]; R-SAT, Table 1, NA = No activity detectable at the highest dose tested (20 μM), read-out: NPFF2 pEC50 (converted)): 1580 nM; behaviors observed (typically precede barrel-rolling seizures) ([2]; rat, in vivo, ip, 30 mg/kg): immobility and staring, ataxia, splayed hind limbs, body swaying, lying on one side with spastic limb abduction and body distortions; time of peak effect after administration ([3]; SNL rats, i.p.): 30 min; calculated A50, reversal of tactile allodynia ([3]; SNL rats, i.p., 95% CI): 6.2 mg
